Measurements taken from PubChem BioAssay (NCI).
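Assay format: 96-well plates, 48-hour exposure. At the GI50, growth is halved. TGI: concentration producing complete growth inhibition.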

What was measured:
Experiment in all cases: inhibition of tumour cell growth, NCI panel, 48 h
[1] = system: 786-0 renal
[2] = system: HOP-92 NSCLC
[3] = system: UACC-257 melanoma
[4] = system: IGROV1 ovarian
[5] = system: A498 renal
[6] = system: HCT-15 colon
[7] = system: SN12C renal
[8] = system: COLO 205 colon
[9] = system: KM12 colon
[10] = system: SW-620 colon

In the case of `C[C@H]1[C@@H](OCC(CO[C@H]2O[C@@H]3O[C@@]4(C)CC[C@H]5[C@H](C)CC[C@@H]([C@H]2C)[C@@]35OO4)=NOCC(=O)O)OC2O[C@@]3(C)CC[C@H]4[C@H](C)CC[C@@H]1[C@@]24OO3` (some centres not stated), the GI50 [1] is reported as 0.112 µM, the TGI [1] is reported as 23 µM and the GI50 [2] is reported as < 0.01 µM. It also gave a TGI [2] of 0.0621 µM, a GI50 [3] of 0.0266 µM and a TGI [3] of 16.4 µM. The GI50 [4] was 0.0673 µM, the TGI [4] was 21.3 µM and the GI50 [5] was 1.76 µM. The TGI [5] was 19.6 µM, the GI50 [6] was < 0.01 µM and the TGI [6] was 0.891 µM. For the same compound, the GI50 [7] was 0.0215 µM, the TGI [7] was 1.02 µM and the GI50 [8] was < 0.0195 µM. For the same compound, the TGI [8] was 0.422 µM, the GI50 [9] was < 0.0166 µM and the TGI [9] was 13 µM. For the same compound, the GI50 [10] was < 0.0137 µM and the TGI [10] was 18 µM.
With `COc1cc(C2C(C(=O)Nc3ccccc3)=C(C)NC(C)=C2C(=O)Nc2ccccc2)ccc1O` the TGI [1] was > 100 µM, the TGI [2] was 88.5 µM and the TGI [3] was > 100 µM. For the same compound, the TGI [4] was > 100 µM, the TGI [5] was > 100 µM and the TGI [6] was > 100 µM. The TGI [7] was > 100 µM, the TGI [8] was 60.4 µM and the TGI [9] was > 100 µM. The TGI [10] was > 100 µM.
`C=C(C)[C@H]1CC/C(C)=C/CCC(C)C(=O)CC/C(CO)=C\[C@@H]1O` (some centres not stated) was tested, and the GI50 [1] was > 100 µM, the TGI [1] was > 100 µM and the GI50 [2] was 61.5 µM. For the same compound, the TGI [2] was > 100 µM, the GI50 [3] was > 100 µM and the TGI [3] was > 100 µM. For the same compound, the GI50 [4] was > 100 µM, the TGI [4] was > 100 µM and the GI50 [5] was 68.7 µM. The TGI [5] was > 100 µM, the GI50 [6] was 5.47 µM and the TGI [6] was > 100 µM. The GI50 [7] was > 100 µM, the TGI [7] was > 100 µM and the GI50 [8] was > 100 µM. For the same compound, the TGI [8] was > 100 µM, the GI50 [9] was > 100 µM and the TGI [9] was > 100 µM. The GI50 [10] was > 100 µM and the TGI [10] was > 100 µM.
In the case of `Cn1cnc([N+](=O)[O-])c1Sc1ncnc2c1ncn2C1OC(CO)C(O)C1O` (configuration not stated), the GI50 [1] is reported as 5.35 µM, the TGI [1] is reported as > 100 µM and the GI50 [2] is reported as 31.3 µM. For the same compound, the TGI [2] was > 100 µM, the GI50 [3] was 24.5 µM and the TGI [3] was > 100 µM. The GI50 [4] was 11.4 µM, the TGI [4] was > 100 µM and the GI50 [5] was 2.36 µM. The TGI [5] was > 100 µM, the GI50 [6] was 11.6 µM and the TGI [6] was > 100 µM. The GI50 [7] was 41.9 µM, the TGI [7] was > 100 µM and the GI50 [8] was 15 µM. The TGI [8] was 61 µM, the GI50 [9] was 6.34 µM and the TGI [9] was > 100 µM. For the same compound, the GI50 [10] was 32.6 µM and the TGI [10] was > 100 µM.
For `CCNCCNc1cc(-c2ccc(F)cc2)c(C#N)c2nc3ccccc3n12`, the GI50 [1] was 1.77 µM, the TGI [1] was 3.45 µM and the GI50 [2] was 2.82 µM. For the same compound, the TGI [2] was 8.12 µM, the GI50 [3] was 2.1 µM and the TGI [3] was 3.82 µM. It also gave a GI50 [4] of 7.26 µM, a TGI [4] of 22.8 µM and a GI50 [5] of 4.79 µM. For the same compound, the TGI [5] was 17.2 µM, the GI50 [6] was 2.31 µM and the TGI [6] was 5.86 µM. It also gave a GI50 [7] of 3.89 µM, a TGI [7] of 14.4 µM and a GI50 [8] of 2.32 µM. The TGI [8] was 5.74 µM, the GI50 [9] was 8.37 µM and the TGI [9] was 21.1 µM. For the same compound, the GI50 [10] was 2.95 µM and the TGI [10] was 10.1 µM.
For `COc1ccc2c(c1)OC13Oc4cc(OC)ccc4C=C1CCCC3=C2`, the GI50 [1] was > 100 µM, the TGI [1] was > 100 µM and the GI50 [2] was 4.46 µM. For the same compound, the TGI [2] was > 100 µM, the GI50 [3] was > 100 µM and the TGI [3] was > 100 µM. The GI50 [4] was > 100 µM, the TGI [4] was > 100 µM and the GI50 [5] was > 100 µM. The TGI [5] was > 100 µM, the GI50 [6] was > 100 µM and the TGI [6] was > 100 µM. The GI50 [7] was > 100 µM, the TGI [7] was > 100 µM and the GI50 [8] was > 100 µM. The TGI [8] was > 100 µM, the GI50 [9] was 18.7 µM and the TGI [9] was > 100 µM. The GI50 [10] was > 100 µM and the TGI [10] was > 100 µM.
With `C[Si](C)(C)/C=C/CN1C(=O)CCC1O` (configuration not stated) the TGI [1] was > 100 µM, the TGI [2] was > 100 µM and the TGI [3] was > 100 µM. The TGI [4] was > 100 µM, the TGI [5] was > 100 µM and the TGI [6] was > 100 µM. For the same compound, the TGI [7] was > 100 µM, the TGI [8] was > 100 µM and the TGI [9] was > 100 µM. For the same compound, the TGI [10] was > 100 µM.
With `CC(C)C(N)(C(=O)O)c1ccccc1` (configuration not stated) the TGI [1] was > 100 µM, the TGI [2] was > 100 µM and the TGI [3] was > 100 µM. For the same compound, the TGI [4] was > 100 µM, the TGI [5] was > 100 µM and the TGI [6] was > 100 µM. The TGI [7] was > 100 µM, the TGI [8] was > 100 µM and the TGI [9] was > 100 µM. The TGI [10] was > 100 µM.
`Oc1c(CN2CCCC2)cc(COCc2ccccc2)c2cccnc12` showed a GI50 [1] of 2.22 µM, a TGI [1] of 8.52 µM and a GI50 [2] of 7.15 µM. For the same compound, the TGI [2] was 26.6 µM, the GI50 [3] was 2.84 µM and the TGI [3] was 8.25 µM. The GI50 [4] was 3.54 µM, the TGI [4] was 13.8 µM and the GI50 [5] was 3.82 µM. It also gave a TGI [5] of 15 µM, a GI50 [6] of 0.152 µM and a TGI [6] of 2.9 µM. The GI50 [7] was 4.04 µM, the TGI [7] was 20.8 µM and the GI50 [8] was 10.4 µM. It also gave a TGI [8] of 26.6 µM, a GI50 [9] of 2.14 µM and a TGI [9] of 18.2 µM. It also gave a GI50 [10] of 3.27 µM and a TGI [10] of 18.2 µM.
With `COc1cc(Br)c(CC2=NCCc3cc(OC)c(OC)cc32)cc1OC` the TGI [1] was > 100 µM, the TGI [2] was 60.3 µM and the TGI [3] was 70.6 µM. The TGI [4] was > 100 µM, the TGI [5] was 76.3 µM and the TGI [6] was > 100 µM. For the same compound, the TGI [7] was > 100 µM, the TGI [8] was > 100 µM and the TGI [9] was > 100 µM. For the same compound, the TGI [10] was > 100 µM.
Work on `COc1ccc(/C=C\c2cc(OC)c(OC)c(OC)c2)c(NS(=O)(=O)c2ccc(C)cc2)c1O` yielded a GI50 [1] of 0.129 µM, a TGI [1] of 30.2 µM and a GI50 [2] of 0.102 µM. For the same compound, the TGI [2] was 27.5 µM, the GI50 [3] was 17.8 µM and the TGI [3] was > 100 µM. For the same compound, the GI50 [4] was 0.075 µM, the TGI [4] was > 100 µM and the GI50 [5] was 0.022 µM. For the same compound, the TGI [5] was 0.0805 µM, the GI50 [6] was 0.0395 µM and the TGI [6] was > 81.6 µM. The GI50 [7] was 0.0736 µM, the TGI [7] was > 76.2 µM and the GI50 [8] was 0.723 µM. For the same compound, the TGI [8] was 3.89 µM, the GI50 [9] was 0.0383 µM and the GI50 [10] was 0.0447 µM. The TGI [10] was > 100 µM.
`COc1cc2c(cc1C)n(O)c(C)c(C(=O)C/C(=N/NC(=O)C[N+](C)(C)C)C(=O)Nc1cccc(Cl)c1C)[n+]2=O` was tested, and the TGI [1] was > 100 µM, the TGI [2] was > 100 µM and the TGI [3] was > 100 µM. The TGI [4] was > 100 µM, the TGI [5] was > 100 µM and the TGI [6] was > 100 µM. The TGI [7] was > 100 µM, the TGI [8] was > 100 µM and the TGI [9] was > 100 µM. For the same compound, the TGI [10] was > 100 µM.
With `C[C@@H]1CC[C@@]2(OC1)O[C@H]1C[C@H]3[C@@H]4CC=C5C[C@@H](O[C@@H]6O[C@H](CO)[C@@H](O[C@@H]7O[C@@H](CO)[C@H](O)[C@H]7O)[C@H](O)[C@H]6O[C@@H]6O[C@@H](C)[C@H](O)[C@@H](O)[C@H]6O)CC[C@]5(C)[C@H]4CC[C@]3(C)[C@H]1[C@@H]2C` the GI50 [1] was 1.37 µM, the TGI [1] was 2.68 µM and the GI50 [2] was 0.806 µM. The TGI [2] was 2.1 µM, the GI50 [3] was 1.31 µM and the TGI [3] was 2.64 µM. It also gave a GI50 [4] of 1.16 µM, a TGI [4] of 2.38 µM and a GI50 [5] of 1.28 µM. The TGI [5] was 2.55 µM, the GI50 [6] was 1.12 µM and the TGI [6] was 2.46 µM. For the same compound, the GI50 [7] was 0.481 µM, the TGI [7] was 1.65 µM and the GI50 [8] was 0.966 µM. For the same compound, the TGI [8] was 2.17 µM, the TGI [9] was 2.15 µM and the GI50 [10] was 0.577 µM. It also gave a TGI [10] of 1.93 µM.
For `CC1OC(O)C(O)C(O)C1O` (configuration not stated), the TGI [1] was > 100 µM, the TGI [2] was > 100 µM and the TGI [3] was > 100 µM. For the same compound, the TGI [4] was > 100 µM, the TGI [5] was > 100 µM and the TGI [6] was > 100 µM. For the same compound, the TGI [7] was > 100 µM, the TGI [8] was > 100 µM and the TGI [9] was > 100 µM. The TGI [10] was > 100 µM.
With `COc1ccc(/C=C(\C#N)c2cc3ccccc3n2C)cc1` the GI50 [1] was 0.613 µM, the TGI [1] was > 100 µM and the GI50 [2] was 1.5 µM. The TGI [2] was > 100 µM, the GI50 [3] was 3.32 µM and the TGI [3] was > 100 µM. The GI50 [4] was 0.526 µM, the TGI [4] was > 100 µM and the GI50 [5] was 0.071 µM. The TGI [5] was 0.675 µM, the GI50 [6] was 0.372 µM and the TGI [6] was > 100 µM. For the same compound, the GI50 [7] was 0.58 µM, the TGI [7] was > 100 µM and the GI50 [8] was 0.366 µM. For the same compound, the GI50 [9] was 0.503 µM, the TGI [9] was > 100 µM and the GI50 [10] was 0.357 µM. For the same compound, the TGI [10] was > 100 µM.
